What was measured:
[1] = solubility in water, room temperature (23±0.5° C.)
Method: After the suspensions were allowed to settle, about 0.020 mL of each supernatant was added to a UV cuvette containing about 2.98 mL of Millipore H2O, and the UV absorption of each solution was measured. The concentration, SAQ, of each compound was determined using Beer's Law and the previously measured molar absorptivities (ε, L mol^−1cm^−1) of each compound in water where A is the absorbance (no units), b is the path length of the cuvette (cm) and c is the concentration (mol L^−1) of each compound in the supernatant. Beer's Law: A=εbc c=A/εb

[2] = solubility in octanol, room temperature
Method: Lipid solubility (SLIPID): Each compound (50-100 mg) was stirred at rt in four test tubes containing 2 or 3 mL of isopropyl myristate (IPM) or octanol (OCT) overnight. The saturated suspensions were filtered and about 0.020 mL of each filtrate was diluted with 5 or 10 mL of acetonitrile (ACN). The UV absorbances of the diluted filtrates were measured and the concentrations of each compound in either IPM (SIPM) or OCT (SOCT) were determined using Beer's Law as above but using previously measured ε of each compound in ACN.
The solubilities in the lipid, SOCT or SIPM, could also then be calculated from KLIPID:AQ=SLIPID/SAQ.

[3] = Hydrolysis at pH 10.0 followed by iodine titration; assay type: physicochemical; conditions: pH 10.0, iodine titration with starch indicator
Method: If no free enediol is present, the excess iodine reacts with a starch indicator to give a blue color. During the titration, as iodine solution was added to the prodrug solution, a blue color formed initially but faded as the free enediol was released by hydrolysis of the prodrug and the iodine was reduced to iodide.

SMILES	log SAQ [1]	log SOCT [2]	theoretical amount of ascorbic acid acetonide formed from hydrolysis of the prodrug [3] [%]
CC(=O)OCOC1=C(OC(C)=O)C(=O)OC1C1COC(C)(C)O1 [2-AcC1-3-SMC1 ascorbic acid acetonide, 5,6-Isopropylidene-3-O-(acetyloxymethyl)-2-O-acetyl-L-ascorbic acid]	1.56	1.55	–
CC(=O)OCOC1=C(OC(C)=O)C(=O)OC1C(O)CO (centres unmarked) [2-AcC1-3-SMC1 ascorbic acid]	2.05	1.66	–
CCC(=O)OCOC1=C(OC(=O)CC)C(=O)OC1C1COC(C)(C)O1 (centres unmarked) [2-ethylcarbonyl-3-ethylcarbonyloxymethyl-5,6-isopropylidene ascorbic acid]	–	–	95.7

Source: patent publication US9550744B2, “Vitamin C prodrugs and uses thereof” (priority 2013, dated 2017)
